Series [1] is described as follows: Storage stability of aqueous solutions of Brivaracetam. The series is classed as physicochemical. The note with it: aqueous solution. The text has this:
Also degradation products in solution are formed due to oxidation, pH ranges.

The conditions of series [2]: cited from earlier work.

Each structure is given as a SMILES string. Read-outs that look alike come from different tables or passages of the source.

Consider `CCC[C@@H]1CC(=O)N([C@@H](CC)C(N)=O)C1` [Brivaracetam, (2S)-2-[(4R)-2-oxo-4-propyltetrahydro-1H-pyrrol-1-yl]butanamide], for which, in series [1], the Stability during storage entry is reported as “partially unstable”. Further, the Solubility result is on record as “freely soluble” in series [2] (acetone); “freely soluble” in series [2] (acetonitrile); “very soluble” in series [2] (buffer (pH 1.2, 4.5, and 7.4)); “very soluble” in series [2] (ethanol); “very soluble” in series [2] (glacial acetic acid); “very soluble” in series [2] (methanol). In addition, the figures for the Solubility result in series [2] (n-hexane), in series [2] (toluene) and in series [2] (water) were “very slightly soluble”, “soluble” and “very soluble”, respectively.

(Values after patent US20210393588A1, “READY TO USE I[…] OF BR[…] SALT THEREOF” (Zenvision Pharma LLP, priority 2018, published 2021).)
